Values of other authors in EP0523845A2, “New benzodiazepine analogs” (MERCK & CO. INC., priority 1991, dated 1993).

Conditions: cited from Deschodt-Lanckman et al., Reg. Pept. 2, 15 (1981)

CSCC[C@H](NC(=O)[C@H](Cc1ccc(OS(=O)(=O)O)cc1)NC(=O)[C@@H](N)CC(=O)O)C(=O)NCC(=O)N[C@@H](Cc1c[nH]c2ccccc12)C(=O)N[C@@H](CCSC)C(=O)N[C@@H](CC(=O)O)C(=O)N[C@@H](Cc1ccccc1)C(N)=O [CCK-8s, H-Asp-Tyr(S03H)-Met-Gly-Trp-Met-Asp-Phe-NH2]
half-life: less than 1 hour
